In ChEMBL document CHEMBL3616428, “Recent developments regarding the use of thieno[2,3-d]pyrimidin-4-one derivatives in medicinal chemistry, with a focus on their synthesis and anticancer properties” (Eur J Med Chem, 2015):

What was measured:
MCF7 [1] = assay: Anticancer activity against human MCF7 cells after 72 hrs by MTT assay; type: functional, cell-based; conditions: MCF7, 72 h
[2] = Anticancer activity against human […] cells after 72 hrs by MTT assay; type: functional, cell-based
HepG2 [3] = assay: Anticancer activity against human HepG2 cells at 40 ug/ml after 72 hrs by MTT assay; type: functional; conditions: HepG2, 72 h
HepG2 [4] = assay: Anticancer activity against human HepG2 cells after 72 hrs by MTT assay; type: functional, cell-based; conditions: HepG2, 72 h
MCF7 [5] = assay: Anticancer activity against human MCF7 cells at 40 ug/ml after 72 hrs by MTT assay; type: functional; conditions: MCF7, 72 h
[6] = target: Poly [ADP-ribose] polymerase 1 (Homo sapiens, UniProt P09874); assay: Inhibition of PARP1 (unknown origin)
Sequence of Poly [ADP-ribose] polymerase 1 (P09874 whole entry): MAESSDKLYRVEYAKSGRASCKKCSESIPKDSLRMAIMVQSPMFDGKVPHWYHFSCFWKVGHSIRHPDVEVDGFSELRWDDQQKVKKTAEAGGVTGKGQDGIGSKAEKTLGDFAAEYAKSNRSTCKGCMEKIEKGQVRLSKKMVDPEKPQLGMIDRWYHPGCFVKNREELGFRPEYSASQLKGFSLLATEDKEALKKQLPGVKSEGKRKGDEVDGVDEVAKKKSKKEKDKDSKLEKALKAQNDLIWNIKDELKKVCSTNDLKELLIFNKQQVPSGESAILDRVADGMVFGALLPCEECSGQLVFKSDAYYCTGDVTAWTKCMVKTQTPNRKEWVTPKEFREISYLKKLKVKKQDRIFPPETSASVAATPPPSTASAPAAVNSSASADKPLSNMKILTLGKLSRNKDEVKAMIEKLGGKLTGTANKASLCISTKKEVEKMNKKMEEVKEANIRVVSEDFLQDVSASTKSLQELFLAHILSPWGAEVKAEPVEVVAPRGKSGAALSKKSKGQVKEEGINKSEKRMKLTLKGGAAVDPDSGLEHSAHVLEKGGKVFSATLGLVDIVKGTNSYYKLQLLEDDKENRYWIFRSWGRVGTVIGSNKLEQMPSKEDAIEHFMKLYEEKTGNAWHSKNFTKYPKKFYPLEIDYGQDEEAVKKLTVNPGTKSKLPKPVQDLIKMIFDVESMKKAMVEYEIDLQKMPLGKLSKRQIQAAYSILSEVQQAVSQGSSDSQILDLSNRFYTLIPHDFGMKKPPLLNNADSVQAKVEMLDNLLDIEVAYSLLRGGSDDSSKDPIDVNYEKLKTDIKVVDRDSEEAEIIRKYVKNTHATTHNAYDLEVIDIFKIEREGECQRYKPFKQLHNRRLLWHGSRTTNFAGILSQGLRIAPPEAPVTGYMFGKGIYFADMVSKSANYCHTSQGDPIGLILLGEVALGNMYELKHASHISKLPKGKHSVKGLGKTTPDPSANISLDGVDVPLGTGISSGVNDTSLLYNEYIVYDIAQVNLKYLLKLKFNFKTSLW

HCT-116 [7] = assay: Anticancer activity against human HCT116 cells; type: functional, cell-based
[8] = Anticancer activity against human Chronic myeloid leukemia cells at 10 uM after 24 hrs by MTT assay; type: functional; conditions: Leukemia cell
[9] = Anticancer activity against human Chronic myeloid leukemia cells at 20 uM after 24 hrs by MTT assay; type: functional; conditions: Leukemia cell
HCT-116 [10] = assay: Potency index, ratio imatinib IC50 to compound IC50 for human HCT116 cells; type: functional
HepG2 [11] = assay: Anticancer activity against human HepG2 cells; type: functional, cell-based

Which results are given for `O=c1c2c3c(sc2ncn1Cc1ccc(Br)cc1)CCC=C3`?
IC50 (MCF7 [1]): 78.9 µM; IC50 [2]: 45 µM; inhibition at 40 µg/mL (HepG2 [3]): 66.8%; IC50 (HepG2 [4]): 15 µM; inhibition at 40 µg/mL (MCF7 [5]): 66.8%

Which IC50 [6] does the source give for `NCc1nc2sc3c(c2c(=O)[nH]1)CCC3` here?
Its IC50 is 17 µM.

With `Cc1ccc(NC(=O)c2ccc(CN3CCN(C)CC3)cc2)cc1Nc1nccc(-c2cccnc2)n1` [IMATINIB] as the compound, how does the IC50 (HCT-116 [7]) read?
The IC50 was 34.4 µM.

For `CC(C)(O)C#Cc1ncnc2sc3c(c12)CCC3`, which inhibition at 10 µM [8] is on record?
The inhibition at 10 µM was 30%.

What about the inhibition at 20 µM [9] of the same compound?
The inhibition at 20 µM was 54%.

Which inhibition at 40 µg/mL (HepG2 [3]) does the source give for `O=c1[nH]cc(F)c(=O)[nH]1` [FLUOROURACIL] here?
Its inhibition at 40 µg/mL is 68.2%.

What about the inhibition at 40 µg/mL (MCF7 [5]) of the same compound?
Its inhibition at 40 µg/mL is 68.2%.

With `O=c1[nH]c(CNc2ccccc2)nc2sc3c(c12)CCCCCC3` as the compound, how does the IC50 (HCT-116 [7]) read?
The IC50 was 11.9 µM.

What about the “Ratio IC50” value (HCT-116 [10]) of the same compound?
The value was 2.89.

With `Cc1csc2ncnc(C#Cc3ccccn3)c12` as the compound, how does the inhibition at 10 µM [8] read?
Its inhibition at 10 µM is 32%.

What about the inhibition at 20 µM [9] of the same compound?
Its inhibition at 20 µM is 60%.

For `O=c1[nH]c(CNc2ccc(Cl)cc2)nc2sc3c(c12)CCCCCC3`, which IC50 (HCT-116 [7]) is on record?
The IC50 was 12.4 µM.

What about the “Ratio IC50” value (HCT-116 [10]) of the same compound?
Its value is 1.07.

For `CC(=O)OC[C@H](OC(C)=O)[C@@H](OC(C)=O)[C@H](OC(C)=O)[C@H](OC(C)=O)c1nc2c3c4c(sc3nc(C)n2n1)CCc1ccccc1-4`, which IC50 (HepG2 [11]) is on record?
The IC50 was 12 µM.
